According to PMC11017246, “Discovery of GLPG2737, a Potent Type 2 Corrector of CFTR for the Treatment of Cystic Fibrosis in Combination with a Potentiator and a Type 1 Co-corrector” (Journal of Medicinal Chemistry, 2024):
Where two headings read alike, the source gives them in different places.

Experiments:
ΔF508 CFTR [1] = molecular target: T1, ΔF508 CFTR (Homo sapiens, UniProt P13569, DEL508-508); test: CSE-HRP: cell surface expression horseradish peroxidase assay in CFBE41o- cells; type: cell-based; conditions: for Emax: CFBE41o-
T1 construct: host or cells: CFBE41o- TetON cells, expression induced with doxycycline
T1 sequence (P13569 with tags, fused parts or gaps DEL508-508): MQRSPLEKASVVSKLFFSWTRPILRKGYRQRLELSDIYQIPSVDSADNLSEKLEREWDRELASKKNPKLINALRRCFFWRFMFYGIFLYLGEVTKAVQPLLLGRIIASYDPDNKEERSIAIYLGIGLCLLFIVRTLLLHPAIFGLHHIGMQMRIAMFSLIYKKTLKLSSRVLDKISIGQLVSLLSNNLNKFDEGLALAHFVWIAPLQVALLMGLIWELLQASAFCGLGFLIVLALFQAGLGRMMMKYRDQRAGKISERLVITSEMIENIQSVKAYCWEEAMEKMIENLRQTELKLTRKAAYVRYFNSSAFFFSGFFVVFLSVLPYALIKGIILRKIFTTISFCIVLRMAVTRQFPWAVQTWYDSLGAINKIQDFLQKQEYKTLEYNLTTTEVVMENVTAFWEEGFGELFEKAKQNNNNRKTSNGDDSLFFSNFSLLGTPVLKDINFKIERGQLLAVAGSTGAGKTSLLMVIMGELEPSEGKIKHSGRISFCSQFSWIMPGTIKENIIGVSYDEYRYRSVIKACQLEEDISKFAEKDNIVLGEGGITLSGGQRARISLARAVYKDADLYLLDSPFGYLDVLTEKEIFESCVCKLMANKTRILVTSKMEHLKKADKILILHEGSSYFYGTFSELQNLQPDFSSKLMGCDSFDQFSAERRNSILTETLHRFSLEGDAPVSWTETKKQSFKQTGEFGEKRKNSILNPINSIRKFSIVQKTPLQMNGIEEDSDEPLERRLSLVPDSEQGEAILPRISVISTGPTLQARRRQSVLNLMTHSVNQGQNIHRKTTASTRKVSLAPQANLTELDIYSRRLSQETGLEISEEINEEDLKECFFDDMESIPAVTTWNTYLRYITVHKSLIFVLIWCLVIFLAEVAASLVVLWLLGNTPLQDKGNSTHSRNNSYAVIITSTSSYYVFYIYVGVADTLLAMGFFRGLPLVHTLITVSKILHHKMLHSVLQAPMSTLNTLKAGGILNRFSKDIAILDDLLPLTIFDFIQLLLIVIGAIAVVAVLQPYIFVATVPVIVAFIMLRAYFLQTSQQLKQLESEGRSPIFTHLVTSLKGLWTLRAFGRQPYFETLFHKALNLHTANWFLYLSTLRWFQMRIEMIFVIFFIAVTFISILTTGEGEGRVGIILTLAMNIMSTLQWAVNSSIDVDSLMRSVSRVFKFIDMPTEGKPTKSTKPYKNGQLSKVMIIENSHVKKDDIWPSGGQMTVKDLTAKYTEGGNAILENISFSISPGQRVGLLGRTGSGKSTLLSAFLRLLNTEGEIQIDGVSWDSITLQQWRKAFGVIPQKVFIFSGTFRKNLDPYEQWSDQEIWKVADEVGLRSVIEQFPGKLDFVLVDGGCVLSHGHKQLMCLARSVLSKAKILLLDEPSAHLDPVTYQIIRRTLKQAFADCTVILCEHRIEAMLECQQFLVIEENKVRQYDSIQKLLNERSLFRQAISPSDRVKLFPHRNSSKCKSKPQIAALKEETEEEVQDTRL
Description: A CFBE41o– cell line stably expressing ΔF508 CFTR harboring an HRP-tag in the fourth extracellular loop was obtained from Professor Gergely Lukacs (Department of Physiology, McGill University, Montreal, QC, Canada).[25] Cells were grown in Eagle’s minimal essential medium (Life Technologies) supplemented with 10% FBS, 1% L-glutamine (Life Technologies), 10 mM HEPES (Life Technologies), 200 μg/mL Geneticin (Life Technologies), and 3 μg/mL puromycin (Sigma) in culture flasks coated with 0.01% bovine serum albumin (BSA) (Sigma), 30 μg/mL Purecol (Nutacon), and 0.001% human fibronectin (Sigma).
CFBE41o– TetON cells expressing HRP tagged ΔF508-CFTR were seeded in white 384-well plates (Greiner) at a density of 2000 cells per well. Medium containing 500 ng/mL doxycycline was used to induce expression of ΔF508-CFTR-HRP. After 3 days, cells were treated with corrector or potentiator compounds and transferred to an incubator at 33 °C. On day 4, cells were washed five times with PBS containing Ca^2+ and Mg^2+ using a Bio-Tek plate washer and incubated with a chemiluminescent HRP substrate (SuperSignal West Pico Chemiluminescent Substrate, Thermo Scientific) for 15 min. Chemiluminescence was measured using an Envision plate reader (PerkinElmer). Dose response data was fitted using a 4 parameter hill function of the form Response = neg control + (pos control – neg control)/(1 + 10^(log EC50-concentration)/HillSlope) to determine EC50 values. Percentage efficacy was calculated using the following formula: (max response – neg control)/(C1 response – neg control).

ΔF508 CFTR [2] = molecular target: T1, ΔF508 CFTR; test: TECC (transepithelial clamp circuit) in primary CF-derived HBE cells; type: cell-based; conditions: for Emax: read-out: TECC HBE with GLPG2222 % max activation
Description: Bronchial epithelial cells isolated from the lungs of patients with CF homozygous for the ΔF508 CFTR mutation were obtained from McGill University (Montreal, QC, Canada) or the University of North Carolina (Chapel Hill, NC, United States). Cells were isolated from lungs obtained from donors undergoing planned transplantation. These primary cells were cultured directly on type IV collagen-coated polycarbonate Transwell supports with a diameter of 6.5 mm and pore size of 0.4 μm (Costar, #3397) for 18–25 days in an air–liquid interface, essentially as previously described for TECC.[23]
Twenty-four hours prior to the electrophysiological recording, corrector and/or potentiator compounds were added on both the apical and basolateral sides. TECC recordings were performed by using the TECC instrument developed and sold by EP Design (Bertem, Belgium). During the recording, the epithelial cells were bathed in a NaCl-Ringer solution (120 mM NaCl, 20 mM HEPES, 1.2 mM CaCl2, 1.2 mM MgCl2, 0.8 mM KH2PO4, 0.8 mM K2HPO4, 5 mM glucose, pH 7.4) on both the basolateral (640 μL) and the apical (160 μL) sides and kept at 37 °C. Corrector and potentiator compounds were readded at the same concentration used during the 24 h pretreatment. Apical amiloride was used to inhibit the endogenous ENaC currents (100 μM), while forskolin (10 μM) was applied on both the apical and basolateral sides to stimulate CFTR. Measurements were done during a 20 min time frame with recordings every 2 min. The transepithelial potential and transepithelial resistance were measured in an open circuit and transformed to Ieq using Ohm’s law. The maximal increase in Ieq (ΔIeq, the difference in current before and after forskolin or potentiator treatment) was used as a measure for the increased CFTR activity. EC50 values were generated by measuring the impact of different concentrations of compounds on ΔIeq in primary cells. For this purpose, each transwell was treated with a different compound concentration. CFTRInh-172 was added apically at 10 μM to assess the specificity of the response. Dose response data was fitted using a 3-parameter hill function of the form Response = Bottom + (Top – Bottom)/(1 + (EC50/concentration)) to determine EC50 values. Percentage efficacy was calculated using the following formula: (max response – neg control)/(C1 response – neg control).

[3] = Plasma protein binding, human; type: in vitro ADME; conditions: human, plasma, pH 7.4, human plasma; read-out: PPB % human (converted)
Description: (§1) Plasma protein binding was determined by equilibrium dialysis using the Pierce Red Device plate with inserts (ThermoScientific). Test compound at 5 μM (0.5% DMSO) spiked in freshly thawed human, rat, mouse, or dog plasma (Bioreclamation INC, Westbury, NY, USA) was dialyzed against phosphate-buffered saline (PBS, pH 7.4) at 37 °C under shaking for 4 h. Aliquots were taken from each side of the well, and matrix matched. Proteins were precipitated with an excess of acetonitrile, samples were mixed and centrifuged, and the supernatant was analyzed by liquid chromatography–mass spectrometry/mass spectrometry (LC–MS/MS). Addition of compound peak areas in the buffer chamber and the plasma chamber was considered to be 100% compound.

PK rat = type: in vivo
Description: These studies were performed with naïve male Sprague–Dawley rats (Janvier France, 6–8 weeks old). Rats were dosed iv via a bolus in the tail vein with a dose level of 0.1 mg/kg or orally as a single esophageal gavage with a dose level of 5 mg/kg. For the iv route, the compound was formulated in PEG200/water (60/40; v/v). For the oral route, the compound was formulated in MC 0.5% (2/98) as a homogeneous suspension. Before the oral dosing, the animals were deprived of food for at least 12 h before compound administration until 3 h after administration. All animals had free access to the tap water. Blood samples were collected under light anesthesia and placed into tubes containing Li-heparin as an anticoagulant. Blood samples were collected up to 24 h after dosing (n = 3 rats per route). After centrifugation, the resulting plasma samples were assayed by LC-MS/MS with a nongood laboratory practice (non-GLP)-validated method. PK parameters were calculated by noncompartmental analysis using WinNonlin software (Certara, Princeton, NJ, USA).

[4] = Hepatocyte stability, rat; type: in vitro ADME; conditions: pooled cryopreserved hepatocytes in suspension, read-out: Hep CLint,u rat (converted)
Description: The hepatocyte stability assay was performed by incubation of test compound at 1 μM, 0.03% DMSO in modified Krebs–Henseleit buffer with suspension of pooled cryopreserved hepatocytes (BioIVT, Hicksville, NY, USA) from mouse, rat, dog, or human (BioIVT, Hicksville, NY, USA) at 0.5 million viable hepatocytes/mL. Before adding the hepatocytes (time zero) and after 10, 20, 45, 90, 120, and 180 min of incubation (n = 2) at 37 °C while gently shaking, the reaction was stopped and proteins were precipitated with an excess of acetonitrile containing an internal standard. The samples were mixed, centrifuged, and filtered, and the supernatant was analyzed by liquid chromatography–mass spectrometry/mass spectrometry (LC–MS/MS). The instrument responses (peak areas/IS peak areas) were referenced to the zero-time point samples (considered as 100%) in order to determine the percentage of compound remaining.

[5] = Plasma protein binding, rat; type: in vitro ADME; conditions: pH 7.4, read-out: PPB % rat (converted)
Description: as §1

[6] = no additional corrector, relative to lumacaftor or 5 (3 μM) positive control, read-out: CSE-HRP % max activation
[7] = no additional corrector, 24 h incubation, 33 °C, geometric mean, read-out: CSE-HRP EC50
[8] = in the presence of C1 corrector 5, relative to 5 (3 μM) positive control, read-out: CSE-HRP with 5 % max activation
[9] = in the presence of C1 corrector 5, read-out: CSE-HRP with 5 EC50

SMILES	Emax (ΔF508 CFTR [1]; [6]) [%]	EC50 (ΔF508 CFTR [1]; [7]) [nM]	also measured
CC1(C)Cc2c(sc(NC(=O)c3ccn[nH]3)c2C(N)=O)C(C)(C)O1 [GLPG1837, reference compound]			fold (ΔF508 CFTR [2]; no C2 corrector (reference)): 1 fold; EC50 (ΔF508 CFTR [2]; no C2 corrector, C1 corrector GLPG2222 (4) 0.15 μM, read-out: EC50 of potentiator GLPG1837): 13 nM
O=C(O)c1cc(-c2ccc(N3CCOCC3)cc2)c2c(C3CCC3)nn(-c3ccccc3)c2n1 [Compound 18]			fraction unbound at 4 h, 5 μM [3]: 0.01; clearance (PK rat; male, Sprague-Dawley, plasma, 1 mg/kg, iv dosing, read-out: plasma clearance (converted)): 3.33 mL/min/kg; clearance (PK rat; male, Sprague-Dawley, plasma, iv, 0.1 mg/kg, formula-strings file, unit inferred, read-out: Cl (converted)): 3.33 mL/min/kg; Vd (PK rat; male, Sprague-Dawley, plasma, iv, 0.1 mg/kg, formula-strings file, unit inferred, read-out: Vss): 0.474 L/kg; Vd (PK rat; male, Sprague-Dawley, plasma, iv, 1 mg/kg, 1 mg/kg iv, read-out: Vss): 0.474 L/kg
CS(=O)(=O)NC(=O)c1cc(-c2ccc(N3CCOCC3)cc2)c2c(C3CCC3)nn(-c3ccccc3)c2n1 [Compound 39]			fraction unbound at 4 h, 5 μM [3]: 0.0005
O=C(O)c1cc(-c2ccc(N3CCOCC3)cc2)c2cnn(-c3ccccc3)c2n1 [Compound 15]	116	1270	
Cc1nn(C2CCN(C)CC2)c2nc(C(=O)O)cc(-c3ccc(N4CCOCC4)cc3)c12 [Compound 14]	-2	10000	
CS(=O)(=O)NC(=O)c1cc(N2CCC(N3CCOCC3)CC2)c2c(C3CCC3)nn(-c3ccc(F)cc3)c2n1 [Compound 50]			Emax (ΔF508 CFTR [2]; HBE, footnote b: after 24 h incubation a fixed 1 μM C2 corrector concentration was added during the recording): 410%; EC50 (ΔF508 CFTR [2]; footnote b: after 24 h incubation a fixed 1 μM C2 corrector concentration was added during the recording, read-out: TECC HBE with GLPG2222 EC50): 46 nM; CLint scaled at 1 μM [4]: < 11.5 mL/min/kg; fraction unbound at 4 h, 5 μM [5]: 0.009; fraction unbound at 4 h, 5 μM [3]: 0.013; CLu rat (PK rat; iv, unbound clearance): 205 mL/min/kg; clearance (PK rat; male, Sprague-Dawley, plasma, 0.1 mg/kg, iv, read-out: CLp rat (converted)): 1.83 mL/min/kg; half-life (PK rat; male, Sprague-Dawley, plasma, 0.1 mg/kg, iv, read-out: t1/2 iv rat (converted)): 3.31 h; Vd (PK rat; male, Sprague-Dawley, plasma, iv, 0.1 mg/kg, iv, read-out: Vss rat): 0.47 L/kg
CS(=O)(=O)NC(=O)c1cc(N2CCC(C#N)CC2)c2c(C3CCC3)nn(-c3ccccc3)c2n1 [Compound 48]			Emax (ΔF508 CFTR [2]; primary ΔF508 homozygous HBE cells, 24 h incubation, with GLPG2222): 265%; EC50 (ΔF508 CFTR [2]; primary ΔF508 homozygous HBE cells, 24 h incubation, with GLPG2222, read-out: TECC HBE with GLPG2222 EC50): 60 nM; fraction unbound at 4 h, 5 μM [5]: 0.003; fraction unbound at 4 h, 5 μM [3]: 0.003
CS(=O)(=O)NC(=O)c1cc(N2CCCCC2)c2c(C3CCC3)nn(-c3ccccc3)c2n1 [Compound 46]			fraction unbound at 4 h, 5 μM [5]: 0.001; fraction unbound at 4 h, 5 μM [3]: < 0.001
COCCNc1ccc(-c2cc(C(=O)O)nc3c2c(C)nn3-c2ccccc2)cc1 [Compound 24]	175	2120	
COC1CCN(c2cc(C(=O)NS(C)(=O)=O)nc3c2c(C2CCC2)nn3-c2ccccc2)CC1 [Compound 47]			fraction unbound at 4 h, 5 μM [5]: 0.002; fraction unbound at 4 h, 5 μM [3]: 0.002
COCCN(C)c1ccc(-c2cc(C(=O)O)nc3c2c(C)nn3-c2ccccc2)cc1 [Compound 25]	204	1490	
COCCN(C)c1ccc(-c2cc(C(=O)O)nc3c2c(C2CCC2)nn3-c2ccccc2)cn1 [Compound 42]	191	529	Emax (ΔF508 CFTR [1]; [8]): 417%; EC50 (ΔF508 CFTR [1]; [9]): 483 nM
COCCN(C)c1ccc(-c2cc(C(=O)O)nc3c2c(C2CCC2)nn3-c2ccccc2)cc1 [Compound 40]	173	542	Emax (ΔF508 CFTR [1]; [8]): 325%; EC50 (ΔF508 CFTR [1]; [9]): 448 nM

More lines, main results first:

Emax (ΔF508 CFTR [1]; [6]) [%]	EC50 (ΔF508 CFTR [1]; [7]) [nM]	SMILES	also measured
8.2	10000	CC(=O)c1cc(-c2ccc(N3CCOCC3)cc2)c2c(C)nn(-c3ccccc3)c2n1 [Compound 29]	
96	2980	Cc1nn(-c2ccccc2)c2nc(C(=O)NC#N)cc(-c3ccc(N4CCOCC4)cc3)c12 [Compound 36]	
7	10000	Cc1nn(-c2ccccc2)c2nc(C(=O)NCC(F)(F)F)cc(-c3ccc(N4CCOCC4)cc3)c12 [Compound 33]	
5	10000	Cc1nn(-c2ccccc2)c2nc(C(C)(C)O)cc(-c3ccc(N4CCOCC4)cc3)c12 [Compound 32]	
8.8	10000	Cc1nn(-c2ccccc2)c2nc(C(C)O)cc(-c3ccc(N4CCOCC4)cc3)c12 (centres unmarked) [Compound 31]	
184	448	CC(C)c1nn(-c2ccccc2)c2nc(C(=O)O)cc(-c3ccc(N4CCOCC4)cc3)c12 [Compound 16]	
4	10000	COc1cc(-c2cc(-c3ccc(N4CCOCC4)cc3)c3c(C)nn(-c4ccccc4)c3n2)n[nH]1 [Compound 34]	
24	10000	Cc1nn(-c2ccccc2)c2nc(CC(=O)O)cc(-c3ccc(N4CCOCC4)cc3)c12 [Compound 35]	
15	10000	Cc1nn(-c2ccccc2)c2nc(CO)cc(-c3ccc(N4CCOCC4)cc3)c12 [Compound 30]	
